# Assay results taken from a melting point compilation (Tetko et al.).
row,Compound,melting point [°C]
1,C#CC1(O)C=CC2C3CCC4=CC(=O)CCC4C3CCC21CC (stereo not drawn),198
2,Cc1nc(-c2ccc(C(F)(F)F)cc2)sc1CBr,64 to 65
3,CSc1nc2cc(NCc3ccccc3)ccc2[nH]1,164 to 167
4,N[C@@H]1C=C[C@H](C(=O)O)C1,180
5,CC1=NN(c2ccccc2)C(=O)C1=Cc1c(O)c2cccc(C)c2[nH]c1=O,171
6,CCOC(=O)c1c(NC(=O)CCl)sc2c1CCCC2,115 to 117
7,N#Cc1ccc(N2N=N2)cc1,70
8,O=C(O)c1ccc(Cn2cncn2)cc1,227 to 229
9,OC1CCCC1C1CCCC1 (stereo not drawn),20
10,CCCCCCCCSC(=O)Oc1cc(Cl)nnc1-c1ccccc1,27
11,C[Si](C)(Oc1ccccc1)Oc1ccccc1,-23
12,O=C=Nc1cccc(-n2cccc2)c1,46 to 47
13,C#CCOCc1cc(COCC#C)c(COCC#C)cc1COCC#C,66
14,Cc1ccc(N(SC(F)(Cl)Cl)S(=O)(=O)N(C)C)cc1,96
15,Cc1ccccc1C(=O)NCC(=O)O,161 to 165
16,CC(C)(C)OC(=O)N[C@@H](CO)c1ccccc1,136 to 139
17,C=CC(C)(C)C(=O)O,-6
18,Nc1ccc(Nc2ccccc2)c2c1C(=O)c1ccccc1C2=O,192
19,O=[N+]([O-])c1cccc(-c2nnc3n2NC(c2ccccc2O)S3)c1 (stereo not drawn),210
20,CC(C)n1c(C(F)(F)F)nc2cc(C(=O)O)ccc21,172 to 176
21,ClCc1nc(-c2ccc(OCc3ccc(Cl)cc3)cc2)no1,118

row,Compound,melting point [°C]
1,COC(=O)c1ccc2nccnc2c1,99 to 100
2,O=[N+]([O-])c1ccc(Br)c(C(F)(F)F)c1,43
3,CN1CCN(C2CCNCC2)CC1,54.5
4,O=c1c(Cl)c(Cl)cnn1Cc1ccc(Cl)cc1,138 to 139
5,O=C(Cl)c1cc2cc([N+](=O)[O-])ccc2s1,157 to 158
6,CC(=O)/C=C/c1oc2ccc(Cl)cc2c1-c1ccc(C)o1,118 to 119
7,Cc1cc(C(=O)O)cc(Cl)c1N,274 to 277
8,N[C@H](CCCCP(=O)(O)O)C(=O)O,215 to 220
9,NC(=O)C#CC#CC#CCO,140
10,O=C(Cl)C12CC3CC(CC(C3)C1)C2,51
11,C=CCC(=O)N1CCN(C(=O)OCC2c3ccccc3-c3ccccc32)CC1,105 to 107
12,Cc1cc(Cl)c(O)c(Cl)c1,39
13,COC(=O)c1cc(C)on1,92
14,C[C@]12CCC(O)CC1=CC[C@@H]1[C@@H]2CC[C@]2(C)C(O)CC[C@@]12C (stereo partly drawn),182 to 184
15,CC1(C)CC(=O)C(=NNc2ccccc2[N+](=O)[O-])C(=O)C1,139 to 140
16,CC1C2Cc3ccc(O)cc3C1(C)CCN2CC1CC1 (stereo not drawn),202
17,C[Si]1(C)O[Si](C)(C)O[Si](C)(C)O[Si](C)(C)O[Si](C)(C)O[Si](C)(C)O[Si](C)(C)O1,-26
18,O=Nc1ccc(O)c2ncccc12,245
19,CNC(=O)Oc1ccc2c(c1)C1(C)CCN(C)OC1N2C (stereo not drawn),129
20,CC(=O)c1c(O)ccc2ccccc12,65
21,Cc1c(C)c(C)c2c(c1C)C(=O)CC2C(=O)O (stereo not drawn),214

row,Compound,melting point [°C]
1,Cc1ccc(S(=O)(=O)OC2CCC3(C)C(CCC4C5CCC(=O)C5(C)CCC43)C2)cc1 (stereo not drawn),164 to 166
2,O=C1c2ccccc2C(=O)C1(O)C1(O)C(=O)c2ccccc2C1=O,252
3,COc1cc(C=CC=O)ccc1O,84
4,OCc1cccc(CO)n1,112 to 115
5,Cc1cc(N=O)ccc1N=O,137
6,COCc1cc(O)nc(SC)n1,195 to 196
7,NC(=O)NN=CC(=O)c1ccc(C(=O)C=NNC(N)=O)cc1,246
8,CCC1=C(C)C2=CCC=CC2=N1,64
9,NCCOP(=O)(O)O,242
10,Cc1nc(-c2ccc(S(=O)(=O)Cl)s2)cs1,88 to 90
11,O=C(O)C(F)(F)C(F)(F)C(F)(F)C(F)(F)C(F)(F)C(F)(F)C(F)(F)C(F)(F)C(F)(F)C(F)(F)C(F)(F)F,112 to 114
12,COc1ccc2c(c1C)CC2=O,72 to 73
13,FC(F)=C(F)F,-142
14,CCCOCCO,-70
15,Oc1c(-c2ccc3ccccc3c2O)ccc2ccccc12,300
16,COC(=O)c1ccc([N+](=O)[O-])c(OC)c1,85
17,O=C1C(C(O)c2ccc(O)cc2)C(C(F)(F)F)=NN1c1ccccc1 (stereo not drawn),211
18,COc1ccc(C(=O)Cc2ccccc2)cc1OC,87 to 88
19,OC(CCl)c1ccc(Cl)cc1Cl (stereo not drawn),48 to 52
20,CCCCCCCCCCCCCCCCCC#N,41
21,Nc1nn2c(C(F)(F)F)cc(=O)[nH]c2c1/N=N/c1ccc(O)cc1,268
